From patent publication US20240383908A1, “SYNTHESIS AND APPLICATION OF PHOSPHATASE DEGRADER” (HINOVA PHARMACEUTICALS INC., priority 2021, published 2024)

Target: T1, SHP2 protein (Homo sapiens, UniProt Q06124)
T1 sequence (Q06124 1-593): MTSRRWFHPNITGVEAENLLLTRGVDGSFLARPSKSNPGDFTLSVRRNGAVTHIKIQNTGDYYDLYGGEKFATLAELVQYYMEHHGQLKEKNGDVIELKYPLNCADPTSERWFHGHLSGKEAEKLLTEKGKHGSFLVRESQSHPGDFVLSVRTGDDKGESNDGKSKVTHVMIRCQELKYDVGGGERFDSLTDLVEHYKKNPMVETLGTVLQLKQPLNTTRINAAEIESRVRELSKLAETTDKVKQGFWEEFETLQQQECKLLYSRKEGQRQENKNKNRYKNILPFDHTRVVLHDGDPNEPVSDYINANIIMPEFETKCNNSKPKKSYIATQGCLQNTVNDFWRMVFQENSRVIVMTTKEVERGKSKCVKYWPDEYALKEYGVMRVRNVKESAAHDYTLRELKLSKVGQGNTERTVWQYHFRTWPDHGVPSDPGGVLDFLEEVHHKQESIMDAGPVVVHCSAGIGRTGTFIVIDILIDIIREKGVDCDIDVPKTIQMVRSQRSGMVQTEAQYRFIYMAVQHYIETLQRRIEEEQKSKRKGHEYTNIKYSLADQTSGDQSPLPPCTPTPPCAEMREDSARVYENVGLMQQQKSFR
Assay: Degradation activity on SHP2 protein in MV-411 cells (Western blot, DC50)
Assay type: cell-based
Design: endogenous in cells
Conditions: MV411 cells, 24 hours, read-out: Degradation activity for differenct cell lines MV411 (DC50)
Experimental: • MV-411 cell line (COBIER, CBP-60522) • FBS (GEMINI, Cat. No. 900-108) • 0.01M PBS (Biosharp, Cat. No. 162262) • IMDM (Hyclone, Cat. No. SH30228.01) • Penicillin-Streptomycin (Gibco, Cat. No. 15140122) • DMSO (Sigma, Cat. No. D5879) • Centrifuge Tube, 15 ml (Excell Bio, Cat. No. CS015-0001) • Cell Culture Dish, (WHB, Cat. No. CS016-0128) • 12-well cell culture cluster (Corning, Cat. No. 3513) • RIPA lysate buffer (Thermo, Cat. No. 89900) • Protein Loding Buffer (Beyotime, Cat. No. P0015L) • BCA Protein Assay Kit (EpiZyme, Cat. No. ZJ102) • SDS-PAGE Fast Preparation Kit (EpiZyme, Cat. No. PG112) • Anti-GAPDH (14C10) Rabbit mAb (CST, Cat. No. 2118L) • Anti-SHP2 rabbit mAb (CST, Cat. No. 37525) • Peroxidase Affinipure (HRP) Goat Anti-Rabbit IgG (Zen Bioscience, Cat. No. 511203) • TBST (Biosharp, Cat. No. BL601A) • ECL chemiluminescence kit (4A Biotech, Cat. No. 4AW011-200)
• (1) Cell culture medium: IMIDM medium+10% FBS+1% Pen Strep; • (2) PBS buffer: PBS powder was dissolved in 2 L of ultrapure water and sterilized; • (3) Cell lysate: RIPA lysate buffer is added with protease inhibitors at a ratio of 1:1000 before use.
(1) MV-411 cells were cultured in the cell culture medium, and then well-growing cells were selected and inoculated in a 12-well plate, with 1 mL/well and 1×10^6 cells/well. The plate was incubated overnight in a 5% CO2 cell incubator at 37° C.
(2) 10 mM storage solution of each drug was prepared using dimethylsulfoxide (DMSO). The stock solution was diluted gradually with DMSO before use, and then 1 μL of the compound solution was added to the cell culture well (to ensure that the DMSO concentration in the culture system was […]), so that the final drug concentration is 100 nM, 10 nM, 3 nM, 1 nM, 0.3 nM, and 0.1 nM. Two wells were set for each concentration. The plate was gently shaken and mixed. Additionally, negative control wells (containing an equal amount of DMSO) and positive control wells were included.
(3) After 24 hours of cultivation, the cells were lysed using RIPA cell lysate, and the proteins were extracted. The protein concentration was measured using a BCA assay kit. 5× concentrated protein buffer was loaded, heated at 100° C. for 5 min, and then the sample was stored at −20° C.
(4) For each well, 30 μg of protein was loaded to polyacrylamide gel for electrophoresis.
(5) The protein was transferred from polyacrylamide gel to PVDF membrane, and sealed at room temperature with 5% skimmed milk for 1 h, which was then incubated with the primary antibodies (Anti-SHP2 rabbit mAb and Anti-GAPDH rabbit mAb) at 4° C. overnight. The membrane was washed three times with TBST solution, 10 minutes for each time. After that, the membrane was incubated with the secondary antibodies (horseradish peroxidase labeled goat anti-rabbit IgG) at room temperature for 2 h, and then washed three times with TBST solution, 10 minutes for each time, followed by exposure.
(6) The images were analyzed with Image J grayscale, and the degradation ratio of protein bands in the test group was calculated, based on the negative control group (DMSO) (100%).
(7) Using the Dose-response-inhibition equation in the data processing software GraphPad Prism 8, the DC50 value was obtained (which represents the drug concentration corresponding to 50% degradation of the target protein).
Finally, ECL detection solution was added for color development, and photos were taken with an automatic chemiluminescence instrument, so as to collect images and analyze them.

| DC50 [nM] | Structure (SMILES) |
| --- | --- |
| < 100 | Cc1ncsc1-c1ccc([C@H](C)NC(=O)[C@@H]2C[C@@H](O)CN2C(=O)[C@@H](NC(=O)CCCCCCCN2CC3(C2)CN(C(=O)[C@@H]2C[C@H]2C(=O)Nc2cccc(Sc4cnc(N5CCC(C)(N)CC5)cn4)c2)C3)C(C)(C)C)cc1 [Compound 39] |
| > 1000 | CC1(CN)CCN(c2cnc(Sc3ccc(NC(=O)COCCOCCOCCOCC(=O)Nc4ccc5c(c4)C(=O)N(C4CCC(=O)NC4=O)C5)cc3Cl)cn2)CC1 (stereo not drawn) [Compound 11] |
| > 1000 | CC1(N)CCN(c2cnc(Sc3cccc(NC(=O)CC(=O)Nc4ccc5c(c4)C(=O)N(C4CCC(=O)NC4=O)C5)c3)cn2)CC1 (stereo not drawn) [Compound 9] |
| > 1000 | CC1(N)CCN(c2cnc(Sc3cccc(NC(=O)CCC(=O)N4CC5(CN(CCCCCCCC(=O)Nc6ccc7c(c6)C(=O)N(C6CCC(=O)NC6=O)C7)C5)C4)c3)cn2)CC1 (stereo not drawn) [Compound 26] |
| < 100 | Cc1ncsc1-c1ccc([C@H](C)NC(=O)[C@@H]2C[C@@H](O)CN2C(=O)[C@@H](NC(=O)c2cnc(N3CCC4(CN(CCCCC(=O)Nc5cccc(Sc6cnc(N7CCC(C)(N)CC7)cn6)c5)C4)C3)nc2)C(C)(C)C)cc1 [Compound 88] |
| < 100 | CN(Cc1ccc2c(c1)CN(C1CCC(=O)NC1=O)C2=O)C(=O)c1ccc(N2CCC3(CC(OCCCCCC(=O)Nc4cccc(Sc5cnc(N6CCC(C)(N)CC6)cn5)c4)C3)C2)nn1 (stereo not drawn) [Compound 167] |
| > 1000 | CC1(N)CCN(c2cnc(Sc3cccc(NC(=O)CC(=O)Nc4cccc5c4CN(C4CCC(=O)NC4=O)C5=O)c3)cn2)CC1 (stereo not drawn) [Compound 5] |
| < 100 | CC1(N)CCN(c2cnc(Sc3cccc(NC(=O)COCCCCCN4CC5(CCN(c6ccc(C(=O)NCc7ccc8c(c7)CN(C7CCC(=O)NC7=O)C8=O)nn6)C5)C4)c3)cn2)CC1 (stereo not drawn) [Compound 124] |
| 100 to 1000 | Cc1ncsc1-c1ccc([C@H](C)NC(=O)[C@@H]2C[C@@H](O)CN2C(=O)[C@@H](NC(=O)CCCCCCCCCCN2CC(C(=O)Nc3cccc(Sc4cnc(N5CCC(C)(N)CC5)cn4)c3)C2)C(C)(C)C)cc1 [Compound 44] |
| < 100 | NC1CCN(c2cnc(Sc3cccc(NC(=O)CCCCCCCCN4C5CCC4CN(c4ccc(C(=O)NCc6ccc7c(c6)CN(C6CCC(=O)NC6=O)C7=O)nn4)C5)c3)cn2)CC1F (stereo not drawn) [Compound 143] |
| < 100 | CN(Cc1ccc2c(c1)CN(C1CCC(=O)NC1=O)C2=O)C(=O)c1ccc(N2CCC(OCCCCCCCC(=O)Nc3cccc(Sc4cnc(N5CCC(C)(N)CC5)cn4)c3)C(F)(F)C2)nn1 (stereo not drawn) [Compound 173] |
| > 1000 | CC1(N)CCN(c2cnc(Sc3cccc(NC(=O)/C=C/C(=O)N4CC5(CCN(CCCCCCC(=O)NCc6ccc7c(c6)CN(C6CCC(=O)NC6=O)C7=O)C5)C4)c3)cn2)CC1 (stereo not drawn) [Compound 150] |
| < 100 | CC1(N)CCN(c2cnc(Sc3cccc(NC(=O)CCCCCCCOC4CCN(c5ccc(C(=O)NCc6ccc7c(c6)CN(C6CCC(=O)NC6=O)C7=O)nn5)CC4(F)F)c3)cn2)CC1 (stereo not drawn) [Compound 153] |
| > 1000 | CCCCCOC(=O)NC1(C)CCN(c2cnc(Sc3cccc(NC(=O)CCCCCCN4CC5(CCN(c6ccc(C(=O)NCc7ccc8c(c7)CN(C7CCC(=O)NC7=O)C8=O)nn6)C5)C4)c3)cn2)CC1 (stereo not drawn) [Compound 187] |
| > 1000 | CC1(CN)CCN(c2cnc(Sc3ccc(NC(=O)COCCOCC(=O)Nc4ccc5c(c4)C(=O)N(C4CCC(=O)NC4=O)C5)cc3Cl)cn2)CC1 (stereo not drawn) [Compound 8] |
| < 100 | CC1(CN)CCN(c2cnc(Sc3cccc(NC(=O)CCC(=O)N4CCN(CCCCCCCCC(=O)Nc5ccc6c(c5)C(=O)N(C5CCC(=O)NC5=O)C6)CC4)c3Cl)cn2)CC1 (stereo not drawn) [Compound 16] |
| < 100 | NC1(CO)CCN(c2cnc(Sc3cccc(NC(=O)CCCCCC=C4CC5(CCN(c6ccc(C(=O)NCc7ccc8c(c7)CN(C7CCC(=O)NC7=O)C8=O)nn6)CC5)C4)c3)cn2)CC1 (stereo not drawn) [Compound 210] |
| 100 to 1000 | Cc1ncsc1-c1ccc([C@H](C)NC(=O)[C@@H]2C[C@@H](O)CN2C(=O)[C@@H](NC(=O)c2ccc(N3CC4CCC(C3)N4CCCCCCCCC(=O)Nc3cccc(Sc4cnc(N5CCC(C)(N)CC5)cn4)c3)nn2)C(C)(C)C)cc1 [Compound 118] |
| 100 to 1000 | CC1(N)CCN(c2cnc(Sc3cccc(NC(=O)CCCCCCC(=O)N4CC5(CCN(c6ccc(C(=O)NCc7ccc8c(c7)CN(C7CCC(=O)NC7=O)C8=O)nn6)C5)C4)c3)cn2)CC1 (stereo not drawn) [Compound 134] |
| < 100 | CC1(N)CCN(c2cnc(Sc3cccc(NC(=O)CCCCCCCN4CC5(CCN(Cc6ccc(COc7cccc8c7CN(C7CCC(=O)NC7=O)C8=O)cc6)C5)C4)c3)cn2)CC1 (stereo not drawn) [Compound 68] |
| > 1000 | Cc1nc2cccc(NC(=O)COCCOCCNC(=O)CCC(=O)Nc3cccc(Sc4cnc(N5CCC(C)(N)CC5)cn4)c3)c2c(=O)n1C1CCC(=O)NC1=O (stereo not drawn) [Compound 20] |
| < 100 | CC1(N)CCN(c2cnc(Sc3cccc(NC(=O)CCCCCCCCN4C5CCC4CN(c4ccc(C(=O)N6CCN(c7ccc8c(c7)C(=O)N(C7CCC(=O)NC7=O)C8=O)CC6)nn4)C5)c3)cn2)CC1 (stereo not drawn) [Compound 148] |
| < 100 | Cc1ncsc1-c1ccc([C@H](C)NC(=O)[C@@H]2C[C@@H](O)CN2C(=O)[C@@H](NC(=O)c2ccc(N3CC4CN(CCCCCCCC(=O)Nc5cccc(Sc6cnc(N7CCC(C)(N)CC7)cn6)c5)CC4C3)nn2)C(C)(C)C)cc1 (stereo partly drawn) [Compound 99] |
| < 100 | CN(Cc1ccc2c(c1)CN(C1CCC(=O)NC1=O)C2=O)C(=O)c1cnc(N2CCC3(CN(CCCCCCC(=O)Nc4cccc(Sc5cnc(N6CCC(C)(N)CC6)cn5)c4)C3)C2)c(C(F)(F)F)c1 (stereo not drawn) [Compound 171] |
| 100 to 1000 | CC1(N)CCN(c2cnc(Sc3cccc(NC(=O)COCCOCCOCCOCC(=O)NCc4ccc5c(c4)CN(C4CCC(=O)NC4=O)C5=O)c3)cn2)CC1 (stereo not drawn) [Compound 3] |
| < 100 | Cc1ncsc1-c1ccc([C@H](C)NC(=O)[C@@H]2C[C@@H](O)CN2C(=O)[C@@H](NC(=O)c2cnc(N3CCN(CCCC(=O)Nc4cccc(Sc5cnc(N6CCC(C)(N)CC6)cn5)c4)CC3)nc2)C(C)(C)C)cc1 [Compound 82] |
| < 100 | CC1(N)CCN(c2cnc(Sc3cccc(NC(=O)CCCCCCCN4CC5(CC(n6cc(C#Cc7ccc8c(c7)CN(C7CCC(=O)NC7=O)C8=O)cn6)C5)C4)c3)cn2)CC1 (stereo not drawn) [Compound 172] |
| 100 to 1000 | Cc1ncsc1-c1ccc([C@H](C)NC(=O)[C@@H]2C[C@@H](O)CN2C(=O)[C@@H](NC(=O)c2ccc(N3CCC4(CN(CCCCC(=O)Nc5cccc(Sc6cnc(N7CCC(C)(N)CC7)cn6)c5)C4)C3)nn2)C(C)(C)C)cc1 [Compound 144] |
| < 100 | CC1(CN)CCN(c2cnc(Sc3cccc(NC(=O)CCC(=O)N4CCN(CCCCCCCCC(=O)Nc5cccc6c5CN(C5CCC(=O)NC5=O)C6=O)CC4)c3Cl)cn2)CC1 (stereo not drawn) [Compound 13] |
| 100 to 1000 | CC1(N)CCN(c2cnc(Sc3cccc(NC(=O)CCCCCCCC(=O)NCc4ccc5c(c4)CN(C4CCC(=O)NC4=O)C5=O)c3)cn2)CC1 (stereo not drawn) [Compound 2] |
